± gives the uncertainty stated by the source.
Experiment: xn = mol fraction of the nth substance listed

CCCCNCCCC + CCO
viscosity [mPa·s], 101.33 kPa
Settings | x1 = 0.1169 | x1 = 0.2094 | x1 = 0.3171 | x1 = 0.3921 | x1 = 0.4922 | x1 = 0.6159 | x1 = 0.712 | x1 = 0.7802 | x1 = 0.8995
303.15 K | 1.107 ± 0.014 | 1.126 ± 0.014 | 1.099 ± 0.014 | 1.065 ± 0.013 | 1.008 ± 0.013 | 0.9427 ± 0.012 | 0.8965 ± 0.011 | 0.8625 ± 0.011 | 0.8089 ± 0.01
313.15 K | 0.9037 ± 0.012 | 0.9066 ± 0.012 | 0.8803 ± 0.011 | 0.8493 ± 0.011 | 0.8109 ± 0.011 | 0.766 ± 0.01 | 0.7426 ± 0.0098 | 0.7261 ± 0.0096 | 0.6965 ± 0.0093

CCOC(=O)C(=O)OCC + CCO
viscosity [mPa·s]
Settings | 303.15 K | 313.15 K | 323.15 K
101 kPa, x1 = 0.1003 | 0.935 ± 0.056 | 0.799 ± 0.048 | 0.667 ± 0.04
101 kPa, x1 = 0.2024 | 0.948 ± 0.057 | 0.809 ± 0.049 | 0.68 ± 0.041
101 kPa, x1 = 0.3028 | 0.988 ± 0.06 | 0.836 ± 0.05 | 0.711 ± 0.043
101 kPa, x1 = 0.4015 | 1.045 ± 0.063 | 0.879 ± 0.053 | 0.751 ± 0.045
101 kPa, x1 = 0.4917 | 1.108 ± 0.067 | 0.93 ± 0.056 | 0.793 ± 0.048
101 kPa, x1 = 0.5907 | 1.177 ± 0.071 | 0.99 ± 0.06 | 0.845 ± 0.051
101 kPa, x1 = 0.6942 | 1.259 ± 0.076 | 1.063 ± 0.064 | 0.909 ± 0.055
101 kPa, x1 = 0.8049 | 1.362 ± 0.082 | 1.151 ± 0.069 | 0.987 ± 0.059
101 kPa, x1 = 0.903 | 1.484 ± 0.089 | 1.233 ± 0.074 | 1.061 ± 0.064
101.33 kPa, x1 = 0.1001 | 0.948 ± 0.006 | – | –
101.33 kPa, x1 = 0.2004 | 0.968 ± 0.006 | – | –
101.33 kPa, x1 = 0.2897 | 1.009 ± 0.007 | – | –
101.33 kPa, x1 = 0.398 | 1.069 ± 0.007 | – | –
101.33 kPa, x1 = 0.5098 | 1.146 ± 0.007 | – | –
101.33 kPa, x1 = 0.5982 | 1.213 ± 0.008 | – | –
101.33 kPa, x1 = 0.6828 | 1.283 ± 0.008 | – | –
101.33 kPa, x1 = 0.77 | 1.371 ± 0.009 | – | –
101.33 kPa, x1 = 0.8931 | 1.515 ± 0.009 | – | –

COCCO + CCOC(=O)OCC
298.15 K, 101.33 kPa
Settings | viscosity [mPa·s]
x1 = 0.0272 | 0.752 ± 0.008
x1 = 0.0413 | 0.754 ± 0.008
x1 = 0.0549 | 0.755 ± 0.008
x1 = 0.0747 | 0.755 ± 0.008
x1 = 0.0907 | 0.759 ± 0.008
x1 = 0.1297 | 0.765 ± 0.008
x1 = 0.1593 | 0.772 ± 0.008
x1 = 0.224 | 0.791 ± 0.008
x1 = 0.2925 | 0.814 ± 0.008
x1 = 0.3392 | 0.835 ± 0.008
x1 = 0.4073 | 0.866 ± 0.009
x1 = 0.4273 | 0.877 ± 0.009
x1 = 0.456 | 0.892 ± 0.009
x1 = 0.4715 | 0.902 ± 0.009
x1 = 0.5283 | 0.939 ± 0.009
x1 = 0.5966 | 0.99 ± 0.009
x1 = 0.6278 | 1.015 ± 0.009
x1 = 0.6808 | 1.062 ± 0.009
x1 = 0.7227 | 1.106 ± 0.009
x1 = 0.7552 | 1.142 ± 0.009
x1 = 0.8011 | 1.197 ± 0.01
x1 = 0.8428 | 1.253 ± 0.01
x1 = 0.8647 | 1.285 ± 0.01
x1 = 0.8826 | 1.313 ± 0.01
x1 = 0.9127 | 1.359 ± 0.01
x1 = 0.9464 | 1.418 ± 0.01
x1 = 0.9674 | 1.455 ± 0.011
x2 = 0.0047 | 1.512 ± 0.011
x2 = 0.0149 | 1.491 ± 0.011

C1CCNCC1 + CCOC(C)=O
303.15 K, 101 kPa
Settings | viscosity [mPa·s]
x1 = 0.1 | 0.45 ± 0.018
x1 = 0.2 | 0.49 ± 0.019
x1 = 0.3 | 0.53 ± 0.02
x1 = 0.4 | 0.565 ± 0.021
x1 = 0.5 | 0.625 ± 0.023
x1 = 0.6 | 0.71 ± 0.025
x1 = 0.7 | 0.795 ± 0.027
x1 = 0.8 | 0.895 ± 0.029
x1 = 0.9 | 1.04 ± 0.033

CCOC(=O)C(=O)OCC + CCOC(C)=O
viscosity [mPa·s], 101 kPa
Settings | x1 = 0.0949 | x1 = 0.196 | x1 = 0.3019 | x1 = 0.4065 | x1 = 0.5006 | x1 = 0.6036 | x1 = 0.6954 | x1 = 0.7993 | x1 = 0.8948
303.15 K | 0.458 ± 0.028 | 0.535 ± 0.032 | 0.636 ± 0.038 | 0.736 ± 0.044 | 0.844 ± 0.051 | 0.978 ± 0.059 | 1.107 ± 0.067 | 1.265 ± 0.076 | 1.428 ± 0.086
313.15 K | 0.423 ± 0.026 | 0.486 ± 0.029 | 0.56 ± 0.034 | 0.647 ± 0.039 | 0.734 ± 0.044 | 0.847 ± 0.051 | 0.95 ± 0.057 | 1.081 ± 0.065 | 1.203 ± 0.072
323.15 K | 0.381 ± 0.023 | 0.436 ± 0.026 | 0.499 ± 0.03 | 0.571 ± 0.034 | 0.646 ± 0.039 | 0.74 ± 0.045 | 0.825 ± 0.05 | 0.928 ± 0.056 | 1.028 ± 0.062

COCCO + CCOC(C)=O
viscosity [mPa·s], 101 kPa
Settings | x1 = 0.0974 | x1 = 0.1945 | x1 = 0.2964 | x1 = 0.3997 | x1 = 0.4973 | x1 = 0.5922 | x1 = 0.6956 | x1 = 0.8008 | x1 = 0.9012
298.15 K | 0.47 ± 0.04 | 0.514 ± 0.043 | 0.572 ± 0.048 | 0.644 ± 0.054 | 0.736 ± 0.062 | 0.838 ± 0.07 | 0.992 ± 0.083 | 1.19 ± 0.099 | 1.421 ± 0.12
303.15 K | 0.444 ± 0.037 | 0.484 ± 0.041 | 0.536 ± 0.045 | 0.601 ± 0.05 | 0.683 ± 0.057 | 0.775 ± 0.065 | 0.912 ± 0.076 | 1.086 ± 0.09 | 1.286 ± 0.11
308.15 K | 0.42 ± 0.035 | 0.456 ± 0.038 | 0.514 ± 0.043 | 0.564 ± 0.047 | 0.636 ± 0.053 | 0.719 ± 0.06 | 0.84 ± 0.07 | 0.994 ± 0.083 | 1.173 ± 0.098
